Source: ChEMBL document CHEMBL4371076 (J Med Chem, 2019)

Legend:
[1] = target: Sodium channel protein type 9 subunit alpha (Homo sapiens, UniProt Q15858); experiment: Inhibition of human Nav1.7 expressed in HEK293 cells after 600 secs at -60 mV holding potential by ion works barracuda population patch clamp method; assay type: cell-based
[2] = target: Sodium channel protein type 5 subunit alpha (Homo sapiens, UniProt Q14524); experiment: Inhibition of human Nav1.5 expressed in HEK293 cells after 600 secs at -50 mV holding potential by ion works barracuda population patch clamp method; assay type: cell-based
Sodium channel protein type 5 subunit alpha, sequence (Q14524 whole entry): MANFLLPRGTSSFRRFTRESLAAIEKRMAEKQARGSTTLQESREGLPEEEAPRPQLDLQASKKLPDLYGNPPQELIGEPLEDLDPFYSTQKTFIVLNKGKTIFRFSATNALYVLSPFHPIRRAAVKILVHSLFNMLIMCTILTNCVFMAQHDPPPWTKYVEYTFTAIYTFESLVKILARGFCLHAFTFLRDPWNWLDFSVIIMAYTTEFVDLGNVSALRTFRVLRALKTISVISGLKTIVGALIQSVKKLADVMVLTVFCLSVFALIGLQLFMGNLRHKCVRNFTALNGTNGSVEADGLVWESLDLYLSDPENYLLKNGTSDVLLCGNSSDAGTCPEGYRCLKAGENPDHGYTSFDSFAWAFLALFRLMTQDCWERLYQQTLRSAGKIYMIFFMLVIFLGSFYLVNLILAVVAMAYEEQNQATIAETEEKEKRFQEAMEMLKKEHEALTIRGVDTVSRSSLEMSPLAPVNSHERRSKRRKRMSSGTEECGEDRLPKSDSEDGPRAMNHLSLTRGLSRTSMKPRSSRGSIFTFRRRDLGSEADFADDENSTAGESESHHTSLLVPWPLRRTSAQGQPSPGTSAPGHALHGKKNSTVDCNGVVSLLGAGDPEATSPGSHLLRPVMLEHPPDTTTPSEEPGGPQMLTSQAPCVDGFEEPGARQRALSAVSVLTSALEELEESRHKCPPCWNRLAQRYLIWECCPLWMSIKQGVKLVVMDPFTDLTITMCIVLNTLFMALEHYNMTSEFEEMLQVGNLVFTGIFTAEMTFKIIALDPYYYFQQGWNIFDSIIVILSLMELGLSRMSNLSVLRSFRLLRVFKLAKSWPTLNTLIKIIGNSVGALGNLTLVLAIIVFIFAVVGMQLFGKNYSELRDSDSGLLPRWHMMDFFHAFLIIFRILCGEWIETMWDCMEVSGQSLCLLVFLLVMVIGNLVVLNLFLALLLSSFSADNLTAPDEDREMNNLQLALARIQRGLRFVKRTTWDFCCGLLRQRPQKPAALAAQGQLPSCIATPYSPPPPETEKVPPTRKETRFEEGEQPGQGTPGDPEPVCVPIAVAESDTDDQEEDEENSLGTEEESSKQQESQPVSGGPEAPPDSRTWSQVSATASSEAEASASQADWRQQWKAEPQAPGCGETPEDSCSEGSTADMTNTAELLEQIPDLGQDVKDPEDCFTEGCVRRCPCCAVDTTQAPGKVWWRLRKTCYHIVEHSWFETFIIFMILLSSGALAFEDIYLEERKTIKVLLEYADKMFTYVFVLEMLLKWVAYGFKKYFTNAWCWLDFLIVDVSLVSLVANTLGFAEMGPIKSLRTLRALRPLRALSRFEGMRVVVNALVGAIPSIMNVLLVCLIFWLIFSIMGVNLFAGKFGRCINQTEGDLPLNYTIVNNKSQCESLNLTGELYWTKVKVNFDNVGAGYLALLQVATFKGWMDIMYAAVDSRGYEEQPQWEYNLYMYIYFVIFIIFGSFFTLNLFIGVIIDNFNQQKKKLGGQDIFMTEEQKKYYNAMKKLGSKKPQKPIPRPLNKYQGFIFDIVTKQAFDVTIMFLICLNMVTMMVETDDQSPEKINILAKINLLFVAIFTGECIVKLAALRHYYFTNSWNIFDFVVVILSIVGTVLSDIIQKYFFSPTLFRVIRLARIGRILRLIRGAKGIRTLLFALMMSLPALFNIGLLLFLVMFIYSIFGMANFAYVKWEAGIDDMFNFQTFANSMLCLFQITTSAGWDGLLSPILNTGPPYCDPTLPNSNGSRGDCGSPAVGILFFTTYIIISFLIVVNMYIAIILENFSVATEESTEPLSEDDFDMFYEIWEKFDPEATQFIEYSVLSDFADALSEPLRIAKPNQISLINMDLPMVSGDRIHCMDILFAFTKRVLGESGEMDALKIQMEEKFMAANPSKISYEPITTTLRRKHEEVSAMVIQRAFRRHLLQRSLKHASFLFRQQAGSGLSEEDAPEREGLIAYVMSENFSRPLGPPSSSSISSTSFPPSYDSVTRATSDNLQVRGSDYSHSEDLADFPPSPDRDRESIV

Sodium channel protein type 9 subunit alpha, sequence (Q15858 whole entry): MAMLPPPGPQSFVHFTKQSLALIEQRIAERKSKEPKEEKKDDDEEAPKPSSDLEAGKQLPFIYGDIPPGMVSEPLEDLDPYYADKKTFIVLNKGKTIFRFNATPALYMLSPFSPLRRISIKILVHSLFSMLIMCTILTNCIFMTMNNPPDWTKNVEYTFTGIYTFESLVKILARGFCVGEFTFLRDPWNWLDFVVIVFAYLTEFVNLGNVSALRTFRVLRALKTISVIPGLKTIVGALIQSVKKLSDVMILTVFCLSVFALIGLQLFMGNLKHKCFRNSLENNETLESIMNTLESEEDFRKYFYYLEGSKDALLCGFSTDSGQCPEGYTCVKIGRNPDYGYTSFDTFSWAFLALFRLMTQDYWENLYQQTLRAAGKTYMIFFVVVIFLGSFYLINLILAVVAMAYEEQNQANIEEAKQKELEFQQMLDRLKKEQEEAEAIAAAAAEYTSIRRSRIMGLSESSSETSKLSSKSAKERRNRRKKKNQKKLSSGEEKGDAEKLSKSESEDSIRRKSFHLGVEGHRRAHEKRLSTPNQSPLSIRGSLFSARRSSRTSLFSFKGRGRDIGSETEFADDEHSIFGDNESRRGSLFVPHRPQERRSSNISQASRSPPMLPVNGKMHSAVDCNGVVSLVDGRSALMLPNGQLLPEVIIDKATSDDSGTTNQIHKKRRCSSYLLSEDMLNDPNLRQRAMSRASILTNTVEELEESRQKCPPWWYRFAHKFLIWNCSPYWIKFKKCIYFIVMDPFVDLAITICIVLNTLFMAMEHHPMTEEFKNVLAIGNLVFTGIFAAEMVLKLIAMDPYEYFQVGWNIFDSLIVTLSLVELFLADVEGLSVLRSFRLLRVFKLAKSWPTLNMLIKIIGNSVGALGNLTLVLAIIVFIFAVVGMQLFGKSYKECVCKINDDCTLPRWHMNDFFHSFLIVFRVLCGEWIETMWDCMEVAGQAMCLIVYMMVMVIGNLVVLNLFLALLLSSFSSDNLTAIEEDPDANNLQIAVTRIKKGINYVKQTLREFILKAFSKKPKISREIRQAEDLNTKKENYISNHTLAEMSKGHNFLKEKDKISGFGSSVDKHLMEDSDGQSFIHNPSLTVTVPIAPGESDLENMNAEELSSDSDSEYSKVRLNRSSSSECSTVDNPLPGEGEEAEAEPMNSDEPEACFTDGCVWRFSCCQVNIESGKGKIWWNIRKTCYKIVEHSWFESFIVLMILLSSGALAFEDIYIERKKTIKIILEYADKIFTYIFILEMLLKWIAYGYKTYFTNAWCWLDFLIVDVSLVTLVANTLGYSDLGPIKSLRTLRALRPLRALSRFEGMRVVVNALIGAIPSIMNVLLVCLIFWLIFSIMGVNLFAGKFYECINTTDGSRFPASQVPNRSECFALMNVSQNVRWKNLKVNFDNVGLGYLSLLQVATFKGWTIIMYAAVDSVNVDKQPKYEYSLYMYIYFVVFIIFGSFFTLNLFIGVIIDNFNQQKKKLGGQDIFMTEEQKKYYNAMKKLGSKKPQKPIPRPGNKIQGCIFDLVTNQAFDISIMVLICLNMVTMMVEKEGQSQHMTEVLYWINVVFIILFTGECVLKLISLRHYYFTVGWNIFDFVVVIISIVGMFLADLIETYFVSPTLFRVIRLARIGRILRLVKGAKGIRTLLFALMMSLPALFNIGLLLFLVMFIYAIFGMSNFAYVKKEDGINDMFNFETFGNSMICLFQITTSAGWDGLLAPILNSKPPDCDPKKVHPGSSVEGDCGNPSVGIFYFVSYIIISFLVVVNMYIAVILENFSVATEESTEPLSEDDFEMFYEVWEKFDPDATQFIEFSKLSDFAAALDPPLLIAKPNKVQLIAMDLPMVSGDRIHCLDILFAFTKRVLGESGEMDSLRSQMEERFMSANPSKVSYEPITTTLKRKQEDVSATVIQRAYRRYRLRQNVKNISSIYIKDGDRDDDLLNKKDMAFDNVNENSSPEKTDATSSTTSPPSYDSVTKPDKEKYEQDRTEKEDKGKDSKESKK

IC50 [1] [nM]	SMILES	IC50 [2] [nM]
104	CC(C)COc1ncc(-c2nn(C)c3cc(C(=O)NS(=O)(=O)C4CC4)ccc23)cc1Cl	5900
80	Cn1cc(-c2ccc(OC(F)(F)F)cc2)c2ccc(C(=O)NS(C)(=O)=O)cc21	16000
	Cc1cccc(-c2cn(C)c3cc(C(=O)NS(C)(=O)=O)ccc23)c1	> 30000
2000	CC(C)COc1ncc(-c2cn(C)c3cc(C(=O)NS(=O)(=O)C4CC4)cnc23)cc1Cl	
	CC(C)COc1ncc(-c2cn(C(C)C)c3cc(C(=O)NS(C)(=O)=O)ccc23)cc1Cl	1700
190	CC(C)COc1ncc(-c2c3ccc(C(=O)NS(=O)(=O)C4CC4)cc3nn2C)cc1Cl	
	Cn1cc(-c2ccc(C(F)F)cc2)c2cc(F)c(C(=O)NS(C)(=O)=O)cc21	> 30000
280	CC(C)COc1ncc(-c2n[nH]c3cc(C(=O)NS(C)(=O)=O)ccc23)cc1Cl	
3020	Cn1cc(-c2ccc(C(F)(F)F)cc2)c2ccc(C(=O)NS(C)(=O)=O)nc21	
	Cn1cc(-c2ccc(C(F)F)cc2)c2ccc(C(=O)NS(C)(=O)=O)cc21	> 30000
642	Cn1cc(-c2ccc(C(F)(F)F)cc2)c2ccc(C(=O)NS(=O)(=O)C3CC3)nc21	
63	Cn1cc(-c2cnc(OCC(F)(F)F)c(Cl)c2)c2ccc(C(=O)NS(C)(=O)=O)cc21	12000
	Cc1ccc(-c2cn(C)c3cc(C(=O)NS(C)(=O)=O)ccc23)cc1	> 30000
	CCc1ccc(-c2cn(C)c3cc(C(=O)NS(C)(=O)=O)ccc23)cc1	> 30000
	Cn1cc(-c2ccc(C(F)F)cc2)c2ccc(C(=O)NS(=O)(=O)C3CC3)cc21	> 30000
7820	CC(C)COc1ncc(-c2cn(C)c3cc(C(=O)NS(C)(=O)=O)cnc23)cc1Cl	
1700	CN(C)S(=O)(=O)NC(=O)c1ccc2c(-c3ccc(C(F)(F)F)cc3)cn(C)c2c1	19000
530	CC(C)COc1ccc(-c2cn(C)c3cc(C(=O)NS(C)(=O)=O)ccc23)cc1	18000
123	Cn1cc(-c2cnc(OCC3CC3)c(Cl)c2)c2ccc(C(=O)NS(C)(=O)=O)cc21	
70	CC(C)COc1ncc(-c2cn(C)c3cc(C(=O)NS(C)(=O)=O)ccc23)cc1C#N	21000
	CCc1cccc(-c2cn(C)c3cc(C(=O)NS(C)(=O)=O)ccc23)c1	> 30000
1400	CC(C)COc1ncc(-c2cn(C)c3nc(C(=O)NS(C)(=O)=O)ccc23)cc1Cl	
	Cn1cc(-c2ccccc2)c2ccc(C(=O)NS(C)(=O)=O)cc21	> 30000
	Cn1cc(-c2cccc(F)c2F)c2ccc(C(=O)NS(C)(=O)=O)cc21	> 30000

SMILES	IC50 [1] [nM]	IC50 [2] [nM]
Cn1cc(-c2ccc(C(F)(F)F)cc2)c2cnc(C(=O)NS(C)(=O)=O)cc21	> 30000	
Cn1nc(-c2ccc(C(F)(F)F)cc2)c2cc(F)c(C(=O)NS(C)(=O)=O)cc21	52	> 30000
COc1cc(-c2cn(C)c3cc(C(=O)NS(C)(=O)=O)ccc23)cnc1OCC(C)C	510	> 30000
Cn1cc(-c2cnc(OCC(C)(C)O)c(Cl)c2)c2ccc(C(=O)NS(C)(=O)=O)cc21	> 30000	> 30000
CC(C)COc1ccc(-c2cn(C)c3cc(C(=O)NS(C)(=O)=O)ccc23)cn1	164	> 30000
Cn1cc(-c2cnc(OCC(F)F)c(Cl)c2)c2ccc(C(=O)NS(C)(=O)=O)cc21	850	> 30000
Cn1cc(-c2cccnc2)c2ccc(C(=O)NS(C)(=O)=O)cc21	> 3000	
CC(C)COc1ccc(-c2nn(C)c3cc(C(=O)NS(C)(=O)=O)ccc23)cn1	314	> 30000
Cn1nc(-c2ccc(C(F)(F)F)cc2)c2ccc(C(=O)NS(C)(=O)=O)cc21	194	> 30000
COc1cc(-c2cn(C)c3cc(C(=O)NS(=O)(=O)C4CC4)ccc23)cnc1OCC(C)C	85	> 30000
CC(C)COc1ccc(-c2nn(C)c3cc(C(=O)NS(C)(=O)=O)c(F)cc23)cn1	170	> 30000
Cn1cc(-c2ccc(C(F)(F)F)cc2)c2ccc(C(=O)NS(=O)(=O)c3ccc(F)c(F)c3)cc21	> 3000	
